Test results reported in patent US20250345343A1, “PHARMACEUTICAL COMPOSITION FOR PREVENTION OR TREATMENT OF SOLID CANCER COMPRISING EPIDITHIODIOXOPIPERAZINE DERIVATIVE OR PHARMACEUTICALLY ACCEPTABLE SALT THEREOF” (priority 2019, published 2025).

Key:
[1] = Cell proliferation assay (WST-1): cytotoxicity and proliferation of breast cancer cells; assay type: cell-based; details: human; up to a concentration of about 200 nM; breast cancer cells MDA-MB-231 and Hs-578T
Method: (§1) The cells (2×10^3 cells/well) were cultured in 96-well plates for 24 hours, and then treated with the compound of the present invention for 2 hours. The cells were placed in fresh complete media and cultured for the labelled time. For cell proliferation, the cells were treated with WST-1 reagent for 1 hour, and the absorbance of the formazan product at 450 nm was measured using a UV/VIS ELISA reader.
(§2) Among the cancer cells prepared according to Experimental Example 1, breast cancer cell lines MDA-MB-231 and Hs-578T were treated with DMSO as a control vehicle and a natural epidithiodioxopiperazine derivative gliotoxin, the cytotoxicity and proliferation rate at each concentration of the treated compound were calculated according to Experimental Example 2, and the results are illustrated in FIG. 1.

[2] = system: breast cancer cell lines MDA-MB-231 and Hs-578T; assay: as above; assay type: cell-based; details: breast cancer cells
Method: as §1, §2

[3] = system: breast cancer cell lines MDA-MB-231 and Hs-578T; assay: Migration assay (trans-well); assay type: cell-based; details: 24 hours
Method: The cells (2×10^5 cells/well) were cultured in 6-well plates for 24 hours, and then treated with the compounds of the present invention for 2 hours. After treatment, the cells were serum-starved by further culturing in fresh culture medium containing 0.5% FBS for 12 hours. The serum-starved cells (5×10^4 cells/well) were transferred to the upper chamber (8 μm pore size) of a 24-well trans-well culture plate (Costar) with the bottom layer pre-coated with 0.1% gelatin B (Sigma Aldrich). The lower chamber was filled with culture medium containing 20% FBS. Twenty-four hours after plating, non-migrated cells in the upper chamber were removed. After the cells which had not migrated from the upper chamber were removed, the upper chamber was fixed with methanol and stained with 0.6% hematoxylin (DAKO). The stained cells were photographed and counted. The number of migratory cells was determined by averaging the values from three wells.
Among the cancer cells prepared according to Experimental Example 1, breast cancer cell lines MDA-MB-231 and Hs-578T were treated with DMSO as a control vehicle and natural epidithiodioxopiperazine derivative gliotoxin, cell migration to the FBS-containing medium was observed and the number of migrated cells was counted according to Experimental Example 5, and the results are illustrated in FIGS. 3 and 4.

[4] = system: various cancer cell lines and three normal cells (MCF-10A, IMR90, and CCD-841); assay: Cell viability assay (Cell Titer-Glo), cancer cells versus normal cells; assay type: cell-based; details: 50 nM and 200 nM
Source text: FIG. 5 is diagrams illustrating the cytotoxic effect of a synthetic epidithiodioxopiperazine derivative on various cancer cells and normal cells. (A) to (J) respectively illustrate the cell viability quantified by the Cell Titer-Glo assay system of breast cancer cells, lung cancer cells, stomach cancer cells, skin cancer cells, colon cancer cells, prostate cancer cells, pancreatic cancer cells, normal breast cells, normal fibroblasts, and normal epithelial cells after treating with the labelled ETP compound for 24 hours (n=3). And IC50 values are determined using a linear regression program (GraphPad Prism) and illustrated in (K).
In order to determine the IC50 value for examining cytotoxicity, the cells (2×10^5 cells/well) were aliquoted into 96-well plates and treated with the labelled compounds at various concentrations for 24 hours. The cell viability was measured using the Cell Titer-Glo Luminescence Assay Reagent Kit (Promega, G7570), and the luminescence was read using an Envision plate reader. The percentage of cell growth with respect to that in the vehicle control group (0.1% DMSO-treated cells) was calculated.

[5] = system: MDA-MB-231, Hs-578T, A549, H460, MKN28, MKN74, SK-MEL-5, SK-MEL-28, RKO, HCT116, PC3 and Panc-1 cancer cells; assay: Colony formation assay; assay type: cell-based; details: for colony formation inhibition: low concentrations (50 nM and 200 nM), 10 days
Method: The cells (2×10^3 cells/well) were cultured in 6-well plates for 24 hours, and then treated with the compounds of the present invention for 2 hours. The cells were placed in fresh complete media and additionally cultured for 10 days. The cells were washed with PBS and stained with crystal violet. Blue-stained colonies were manually counted.
Among the cancer cells prepared according to Experimental Example 1, breast cancer cell lines MDA-MB-231 and Hs-578T; lung cancer cell lines A549 and H460; stomach cancer cell lines MKN28 and MKN74; skin cancer cell lines SK-MEL-5 and SK-MEL-28; colon cancer cell lines RKO and HCT116; a prostate cancer cell line PC3; and a pancreatic cancer cell line Panc-1 were treated with DMSO as a control vehicle and synthetic epidithiodioxopiperazine derivatives A2, A5, and A10.

[6] = system: patient-derived lung adenocarcinoma tumor; assay: Patient-derived tumor xenograft experiment; assay type: in vivo, mice
Method: Animal experiments were approved by the Institutional Animal Care and Use Committee (IACUC) of Seoul National University College of Medicine and complied with ARRIVE (Animal Research: Reporting of In Vivo Experiments) guidelines. Patient-derived lung tumors were subcutaneously implanted into the backs of 4-week-old and 17-week-old NSG (NOD-scid-IL2Rgnull) and humanized NSG (HuNSG) mice, respectively. The compound represented by Chemical Formula 7 (A5, 300 mg/kg) and/or pembrolizumab (humanized anti-PD-1 antibody, 5 mg/kg) dissolved in PBS were intraperitoneally injected to the mice every 3 days for 3 weeks and every 5 days for 3 weeks, respectively. The tumors were allowed to grow for 28 days, excised, and quantified. The tumor volume was measured every 3 days using Vernier calipers and calculated using the following equation.
In the equation, a and b mean the superficial diameter of major axis and the superficial diameter of minor axis, respectively.
While the mouse models prepared by implanting a patient-derived lung adenocarcinoma tumor according to Experimental Example 10 were not treated, were treated only with a representative synthetic epidithiodioxopiperazine derivative A5, or were concurrently treated with A5 and pembrolizumab, a humanized antibody known to be used for cancer immunotherapy, the changes in volume of the tumor were periodically observed, and the results are illustrated in FIG. 15.

[7] = system: breast cancer cell lines MDA-MB-231 and Hs-578T; assay: Cell cycle assay (PI staining, flow cytometry); assay type: cell-based; details: treated 2 hours, cultured 24 hours
Method: The cells (2×10^5 cells/well) were cultured in 6-well plates for 24 hours, and then treated with the compounds of the present invention for 2 hours. The cells were placed in fresh complete media and further cultured for 24 hours. The cells were fixed overnight in 70% ethanol at 4° C., washed with cold PBS, and re-suspended in PBS solution containing RNase A (10 μg/mL) at 37° C. for 30 minutes. The suspended cells were stained with propidium iodide (PI, 50 μg/mL, Invitrogen) for 5 minutes, and flow cytometry (FACS Calibur, BD) was performed. The cell population was analyzed using ModiFit LT software.
Among the cancer cells prepared according to Experimental Example 1, breast cancer cell lines MDA-MB-231 and Hs-578T were not treated or were treated with a natural epidithiodioxopiperazine derivative gliotoxin, the cell cycle was analyzed and the cell percentage in G1 phase was calculated according to Experimental Example 4, and the results are illustrated in FIG. 2.

| SMILES | migration of breast cancer cells induced to the serum-containing medium [3] | non-specific cytotoxicity [4] | colony formation inhibitory effect ([5]; 50 nM) | colony formation inhibition [5] | colony formation inhibitory effect ([5]; 200 nM) | also measured |
| --- | --- | --- | --- | --- | --- | --- |
| CN1C(=O)C2(Cc3cn(C45CC67SSC(CO)(C(=O)N6C4Nc4ccccc45)N(C)C7=O)c4ccccc34)SSC1(CO)C(=O)N2C (stereo not drawn) [chetomin] | significantly decreased |  |  |  |  | viability at 2 h [1]: ≥ 80%; proliferation rate compared to DMSO-treated cells ([2]; chetomin 50 nM): significantly decreased |
| O=C1N2CCCC23SSC12CCCN2C3=O [A10, 5a, 10a-dithio-octahydrodipyrrolo[1,2-a:1′,2′-d]pyrazine-5,10-dione] |  | do not exhibit non-specific cytotoxicity | colony formation was inhibited in most cancer cells | efficiently inhibit colony formation |  |  |
| C=CCN1C(=O)C2SSC1C(=O)N2CC=C [A5, 5,7-diallyl-2,3-dithia-5,7-diazabicyclo[2.2.2] octane-6,8-dione] |  | do not exhibit non-specific cytotoxicity | equal to or somewhat superior to that in the control vehicle-treated group | efficiently inhibit colony formation | remarkably so as to be observed with the naked eye in all tested cells | tumor volume over time ([6]; NSG mice, A5 300 mg/kg intraperitoneally every 3 days for 3 weeks): increase in tumor volume is suppressed; tumor size compared to untreated control group ([6]; humanized NSG mice (HuNSG), A5 300 mg/kg intraperitoneally every 3 days for 3 weeks): an effect of decreasing the tumor size is exerted; inhibiting tumor growth and decreasing tumor size, A5 alone versus pembrolizumab or A5 plus pembrolizumab ([6]; humanized NSG mice (HuNSG), pembrolizumab 5 mg/kg every 5 days for 3 weeks): superior to the pembrolizumab-treated group or the experimental group concurrently treated with A5 and pembrolizumab |
| CN1C(=O)C2SSC1C(=O)N2C [A2, 5,7-dimethyl-2,3-dithia-5,7-diazabicyclo[2.2.2] octane-6,8-dione] |  | do not exhibit non-specific cytotoxicity | equal to or somewhat superior to that in the control vehicle-treated group | efficiently inhibit colony formation | remarkably so as to be observed with the naked eye in all tested cells |  |
| CN1C(=O)C23CC4=CC=CC(O)C4N2C(=O)C1(CO)SS3 (stereo not drawn) [gliotoxin] | significantly decreased |  |  |  |  | viability [1]: ≥ 80%; proliferation rate compared to DMSO-treated cells ([2]; gliotoxin 100 nM): significantly decreased; increase of cell percentage in G1 phase compared to untreated group [7]: ≥ 10% |
